Assay results from patent US20120010161A1, “NOVEL AZAPEPTIDE OR AZAPEPTIDOMIMETIC COMPOUNDS INHIBITING BCRP AND/OR P-GP” (CENTRE NATIONAL DE LA RECHERCHE SCIENTIFIQUE, priority 2009, published 2012).

Legend:
[1] = target: T1, ABCG2 (Homo sapiens, UniProt Q9UNQ0); conditions: cited from earlier work
T1 sequence (Q9UNQ0 1-655): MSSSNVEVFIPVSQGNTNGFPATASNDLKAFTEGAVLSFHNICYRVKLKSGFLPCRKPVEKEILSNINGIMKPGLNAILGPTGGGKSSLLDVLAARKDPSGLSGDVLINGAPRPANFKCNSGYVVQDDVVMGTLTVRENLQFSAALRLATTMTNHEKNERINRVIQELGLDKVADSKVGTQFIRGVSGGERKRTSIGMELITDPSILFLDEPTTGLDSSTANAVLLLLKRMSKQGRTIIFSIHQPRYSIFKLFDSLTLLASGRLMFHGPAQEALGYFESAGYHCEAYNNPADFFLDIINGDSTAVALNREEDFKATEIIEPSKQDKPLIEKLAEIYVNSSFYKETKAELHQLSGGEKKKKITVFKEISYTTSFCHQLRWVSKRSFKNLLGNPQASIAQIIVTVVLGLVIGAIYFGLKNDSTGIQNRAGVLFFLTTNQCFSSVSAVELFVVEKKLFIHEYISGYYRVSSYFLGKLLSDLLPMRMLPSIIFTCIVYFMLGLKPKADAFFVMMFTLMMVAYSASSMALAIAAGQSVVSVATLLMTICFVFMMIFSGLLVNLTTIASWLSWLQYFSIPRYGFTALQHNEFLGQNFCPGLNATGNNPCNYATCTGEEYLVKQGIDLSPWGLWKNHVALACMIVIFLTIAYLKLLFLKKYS

[2] = target: ABCC1 (Homo sapiens, UniProt P33527); conditions: cited from earlier work; note: key: the inhibitor is active (+); it is inactive (−); the effect is unknown (?)
ABCC1, sequence (P33527 whole entry): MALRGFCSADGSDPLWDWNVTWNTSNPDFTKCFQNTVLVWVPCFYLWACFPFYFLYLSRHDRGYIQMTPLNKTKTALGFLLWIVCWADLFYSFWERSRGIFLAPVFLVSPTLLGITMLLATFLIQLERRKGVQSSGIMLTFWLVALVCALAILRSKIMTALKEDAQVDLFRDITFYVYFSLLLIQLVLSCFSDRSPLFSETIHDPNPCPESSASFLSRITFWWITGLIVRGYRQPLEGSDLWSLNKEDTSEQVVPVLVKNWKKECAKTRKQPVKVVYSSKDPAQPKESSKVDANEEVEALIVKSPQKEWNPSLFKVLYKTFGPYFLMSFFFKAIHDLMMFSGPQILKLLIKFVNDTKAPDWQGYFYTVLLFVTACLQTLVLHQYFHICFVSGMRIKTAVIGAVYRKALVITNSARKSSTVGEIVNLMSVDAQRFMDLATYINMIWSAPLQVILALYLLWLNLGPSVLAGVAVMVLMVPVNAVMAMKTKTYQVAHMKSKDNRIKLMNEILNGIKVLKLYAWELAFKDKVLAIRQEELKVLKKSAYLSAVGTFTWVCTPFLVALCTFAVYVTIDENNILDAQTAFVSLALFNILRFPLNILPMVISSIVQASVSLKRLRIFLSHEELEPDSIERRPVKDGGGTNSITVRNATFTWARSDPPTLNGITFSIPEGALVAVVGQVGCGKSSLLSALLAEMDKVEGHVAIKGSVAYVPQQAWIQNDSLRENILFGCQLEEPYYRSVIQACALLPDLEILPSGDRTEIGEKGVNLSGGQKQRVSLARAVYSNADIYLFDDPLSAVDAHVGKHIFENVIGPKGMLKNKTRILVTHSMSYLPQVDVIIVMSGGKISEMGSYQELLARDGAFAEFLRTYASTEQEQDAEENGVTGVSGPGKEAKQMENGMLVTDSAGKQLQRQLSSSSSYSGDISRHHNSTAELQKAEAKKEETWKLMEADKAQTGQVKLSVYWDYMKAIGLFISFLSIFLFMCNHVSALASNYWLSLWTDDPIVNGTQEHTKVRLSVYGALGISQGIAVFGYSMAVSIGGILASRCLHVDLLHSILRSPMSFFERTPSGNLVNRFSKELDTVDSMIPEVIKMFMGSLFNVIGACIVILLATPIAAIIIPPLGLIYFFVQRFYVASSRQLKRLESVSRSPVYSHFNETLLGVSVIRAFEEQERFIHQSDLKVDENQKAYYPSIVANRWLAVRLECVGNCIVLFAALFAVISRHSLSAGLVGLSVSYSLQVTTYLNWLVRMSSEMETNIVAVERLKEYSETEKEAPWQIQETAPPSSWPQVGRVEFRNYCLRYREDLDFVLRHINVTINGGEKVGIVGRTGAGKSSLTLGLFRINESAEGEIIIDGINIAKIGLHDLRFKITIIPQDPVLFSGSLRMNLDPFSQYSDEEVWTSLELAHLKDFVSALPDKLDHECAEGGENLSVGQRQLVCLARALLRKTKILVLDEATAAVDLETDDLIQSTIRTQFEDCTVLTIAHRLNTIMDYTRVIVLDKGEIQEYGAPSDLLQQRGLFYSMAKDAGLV

[3] = target: T2, ABCB1 (Homo sapiens, UniProt P08183); conditions: cited from earlier work; note: key: the inhibitor is active (+); it is inactive (−); the effect is unknown (?)
T2 sequence (P08183 whole entry): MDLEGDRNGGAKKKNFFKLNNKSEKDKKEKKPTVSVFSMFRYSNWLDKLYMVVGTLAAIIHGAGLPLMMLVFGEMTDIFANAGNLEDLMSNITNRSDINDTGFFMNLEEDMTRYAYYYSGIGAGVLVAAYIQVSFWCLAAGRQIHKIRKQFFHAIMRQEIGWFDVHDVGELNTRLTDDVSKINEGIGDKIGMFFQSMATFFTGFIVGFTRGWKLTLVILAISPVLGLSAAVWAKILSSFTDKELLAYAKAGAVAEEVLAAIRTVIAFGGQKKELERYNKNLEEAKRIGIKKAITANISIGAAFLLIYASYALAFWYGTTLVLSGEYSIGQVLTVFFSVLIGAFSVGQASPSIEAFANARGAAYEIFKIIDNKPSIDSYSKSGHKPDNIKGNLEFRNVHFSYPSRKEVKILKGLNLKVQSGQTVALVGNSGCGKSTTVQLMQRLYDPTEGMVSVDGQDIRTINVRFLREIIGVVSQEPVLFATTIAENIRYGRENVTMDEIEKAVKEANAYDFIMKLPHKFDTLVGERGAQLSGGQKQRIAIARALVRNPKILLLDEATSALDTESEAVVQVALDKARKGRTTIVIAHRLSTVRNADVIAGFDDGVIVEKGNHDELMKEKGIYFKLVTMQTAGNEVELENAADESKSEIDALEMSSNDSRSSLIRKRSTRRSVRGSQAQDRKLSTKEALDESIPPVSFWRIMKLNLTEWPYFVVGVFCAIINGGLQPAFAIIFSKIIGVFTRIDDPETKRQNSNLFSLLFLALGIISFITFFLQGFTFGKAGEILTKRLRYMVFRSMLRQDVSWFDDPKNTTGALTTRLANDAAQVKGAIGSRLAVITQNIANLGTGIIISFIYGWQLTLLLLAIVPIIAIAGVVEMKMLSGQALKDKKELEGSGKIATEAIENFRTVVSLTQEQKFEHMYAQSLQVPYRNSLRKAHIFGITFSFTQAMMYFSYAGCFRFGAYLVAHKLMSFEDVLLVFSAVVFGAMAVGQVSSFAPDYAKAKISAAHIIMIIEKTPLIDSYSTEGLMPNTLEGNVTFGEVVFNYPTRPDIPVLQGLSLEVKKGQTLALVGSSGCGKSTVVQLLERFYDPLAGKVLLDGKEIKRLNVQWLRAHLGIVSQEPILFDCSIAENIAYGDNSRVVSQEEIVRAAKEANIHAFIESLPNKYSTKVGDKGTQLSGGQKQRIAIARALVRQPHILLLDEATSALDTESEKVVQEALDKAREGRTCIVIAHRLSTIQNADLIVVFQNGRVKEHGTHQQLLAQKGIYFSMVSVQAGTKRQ

[4] = target: T2, ABCB1; assay: Type of inhibition: daunorubicin efflux at varied substrate and inhibitor concentrations (FIG. 11); type: cell-based; set-up: expressed in transfected cells; host or cells: NIH3T3 transfected with pHaMDR1/A; conditions: daunorubicin efflux as a function of its concentration
[5] = target: T3, BCRP/ABCG2 (Homo sapiens, UniProt Q9UNQ0); assay: Flow cytometry: mitoxantrone efflux induced by ABCG2 in transfected HEK-293 cells; type: cell-based
T3 construct: expressed in transfected cells; host or cells: HEK-293 transfected with pcDNA3.1-ABCG2
T3 sequence (Q9UNQ0 1-655): T1 sequence (Q9UNQ0 1-655)
From the text: (§1) Cell cultures. The human […] HEK-293 transfected with the vector pcDNA3.1 including or not the gene encoding ABCG2 (Robey, R. W., Honjo, Y., Morisaki, K., Nadjem, T. A., Runge, S., Risbood, M., Poruchynsky, M. S., Bates, S. E. 2003, Br. J. Cancer 89(10) 1971-1978) was used to test the efficacy of the products on ABCG2. The newborn hamster kidney cell line BHK21 either natural (negative control) or transfected with the vector pNUT-MRP/His expressing the gene encoding ABCC1 (Chang, Xiu-Bao, Hou, Yue-Xian, Riordan, John R. 1997, J. Biol. Chem. 272(49) 30962-30968) was used to test the efficacy of the products on ABCC1. The cell line NIH3T3 natural or transfected with the vector pHaMDR1/A expressing ABCB1 (Cardarelli, Carol O., Aksentijevich, Ivan, Pastan, Ira, Gottesman, Michael M. 1995 Cancer Res. 55 1086-1091) was used to test the efficacy of the compounds on ABCB1. The various cell types are cultured according to the protocols described previously (Robey, R. W., Honjo, Y., Morisaki, K., Nadjem, T. A., Runge, S., Risbood, M., Poruchynsky, M. S., Bates, S. E. 2003, Br. J. Cancer 89(10) 1971-1978 for the line HEK293, Chang, Xiu-Bao, Hou, Yue-Xian, Riordan, John R. 1997, J. Biol. Chem. 272(49) 30962-30968 for the line BHK21 and Cardarelli, Carol O., Aksentijevich, Ivan, Pastan, Ira, Gottesman, Michael M. 1995 Cancer Res. 55 1086-1091 for the line NIH3T3).
(§2) FIG. 1 schematically illustrates an efflux of substrate induced by a typical ABC transporter. The substrates S, such as mitoxantrone effluxed with ABCG2 and ABCB1 or daunorubicin effluxed with ABCC1, are accumulated in the cells and expelled by the transporter T, leading to a decrease in intracellular fluorescence. In the case of accumulation of the product, typically by inhibition of the efflux protein, the intracellular fluorescence increases.
(§3) Flow cytometry. Transfected or untransfected HEK-293 and BHK-21 cells are in a first stage placed in contact with substrate (5 μM mitoxantrone or 1 μM daunorubicin depending on the transporter). The substrate is accumulated for 30 minutes at 37° C. in the presence or absence of varied concentrations of the test molecules, at 0.5% of DMSO final. After washing with PBS, the cells are incubated in medium containing the same concentrations of test molecules as previously, for 1 hour at 37° C. The drug intracellular fluorescence is measured with a FACscan flow cytometer (Becton Dickinson, Mountain View, Calif.). The fluorescent substrates are excited at 488 nm; the fluorescence emission of mitoxantrone (MTX) is measured at 650 nm and that of daunorubicin is measured at 530 nm. The efficacy of the test molecules is estimated by means of equation 1:
(§4) % efficacy=100×(FA−FBG)/(FC−FBG),
(§5) in which: • FA corresponds to the intracellular level of substrate measured in the cells overexpressing the transporter T (corresponding to the lowest level of fluorescence in the absence of inhibitor), • FC corresponds to the fluorescence in the control cells not expressing the test transporter. This is thus the maximum accumulation of substrate in the cells), • FBG corresponds to the fluorescence measured in the absence of substrate and in the presence of inhibitor.
(§6) The compounds presented in TABLES 2 to 5 were tested by flow cytometry on mammalian cell lines selectively expressing the efflux proteins ABCG2, ABCB1 or ABCC1, as described previously.
(§7) The mitoxantrone efflux induced by ABCG2 or ABCB1 and the daunorubicin efflux induced by ABCC1 are estimated by flow cytometry, as described previously, at 10 μM of each test compound, and then at 2 μM for the compounds showing at least 80% efficacy at 10 μM. The concentration inducing 50% inhibition (IC50) was estimated for the most efficient aza derivatives. The values are obtained by three independent experiments and were adjusted using the SigmaPlot software.

[6] = target: T4, P-gp/ABCB1 (Homo sapiens, UniProt P08183); assay: Flow cytometry: mitoxantrone efflux induced by ABCB1 in transfected NIH3T3 cells; type: cell-based
T4 construct: expressed in transfected cells; host or cells: NIH3T3 transfected with pHaMDR1/A
T4 sequence (P08183 whole entry): as above
From the text: as §1, §2, §3, §4, §5, §6, §7

| SMILES | active or inactive on ABCG2 [1] | active or inactive on ABCC1 [2] | active or inactive on ABCB1 [3] | also measured |
| --- | --- | --- | --- | --- |
| COc1cc2c(cc1OC)CN(CCc1ccc(NC(=O)c3cccc4c(=O)c5cccc(OC)c5[nH]c34)cc1)CC2 [GF 120918, elacridar] | + | − | + |  |
| O[C@@H](COc1cccc2ncccc12)CN1CCN([C@@H]2c3ccccc3[C@@H]3[C@H](c4ccccc42)C3(F)F)CC1 [Ly335979, zosuquidar] | − | − |  |  |
| COc1cc2c(cc1OC)CN(CCc1ccc(NC(=O)c3cc(OC)c(OC)cc3NC(=O)c3cnc4ccccc4c3)cc1)CC2 [XR9576, tariquidar] | + |  | + |  |
| COC(=O)c1cnc2n1CCc1ccccc1C2=C1CCN(CCc2ccc(OCc3ccc4ccccc4n3)cc2)CC1 [R101933, laniquidar] |  |  | + |  |
| CCOC/C=C/c1ccc(-c2nc(-c3ccc(NC(C)C)cc3)c(-c3ccc(NC(C)C)cc3)[nH]2)cc1 [ONT-093, ontogen] |  | − | + |  |
| C/C=C/C[C@@H](C)C(=O)[C@H]1C(=O)N[C@@H](C(C)C)C(=O)N(C)CC(=O)N(C)[C@@H](CC(C)C)C(=O)N[C@@H](C(C)C)C(=O)N(C)[C@@H](CC(C)C)C(=O)N[C@@H](C)C(=O)N[C@H](C)C(=O)N(C)[C@@H](CC(C)C)C(=O)N(C)[C@@H](CC(C)C)C(=O)N(C)[C@@H](C(C)C)C(=O)N1C [PSC833, valspodar] | − |  | + |  |
| CC(C)(C)OC(=O)NN(C(=O)N[C@@H](CCCCNC(=O)OCc1ccccc1)C(=O)OC(C)(C)C)c1ccc(C(=O)OCc2ccccc2)cc1 [IA.3, tert-Butyl ester of (2S)-6-(benzyloxycarbonylamino)-2-[1-(4′-(benzyloxycarbonyl)phenyl)-2-(tert-butoxycarbonyl)hydrazino-carbonylamino]hexanoic acid] |  |  |  | melting point: 106 °C; type of inhibition of ABCB1 [4]: inhibition of noncompetitive type; selectivity toward one or other of the proteins BCRP or P-gp ([5]; BCRP versus P-gp): selective; inhibition at 10 μM ([5]; human, HEK-293 cells transfected with ABCG2 (vector pcDNA3.1), probe mitoxantrone (5 μM), 10 μM compound, mitoxantrone efflux, HEK-293 cells, three independent experiments, read-out: BCRP/ABCG2 % efficacy 10 μM): 38%; IC50 [6]: 330 nM; inhibition at 2 μM ([6]; human, NIH3T3 cells transfected with ABCB1 (vector pHaMDR1/A), probe mitoxantrone (5 μM), 2 μM compound, read-out: P-gp/ABCB1 % efficacy 2 μM): 90 ± 7%; inhibition at 10 μM ([6]; human, NIH3T3 cells transfected with ABCB1 (vector pHaMDR1/A), probe mitoxantrone (5 μM), 10 μM compound, read-out: P-gp/ABCB1 % efficacy 10 μM): 98 ± 14% |
| COc1cc(C(=O)C(=O)N2CCCC[C@H]2C(=O)OC(CCCc2cccnc2)CCCc2cccnc2)cc(OC)c1OC [VX-710, biricodar] | + | + | + |  |
